Values joined by “and” are separate entries in the source; they are usually repeats but may differ in a detail not shown here. Equal values may be shown once. Where a name gives a salt, the structure may show the parent alone. Each block holds one compound with its values, some of them ahead of it.
What was measured:
cdk4/cyclin D1 = cdk4/cyclin D1 (Homo sapiens, UniProt P11802); experiment: Cyclin-dependent kinase assay, cdk4/cyclin D1 (GST-pRb substrate); format: biochemical; conditions: inhibition of cyclin D1/CDK 4 enzyme activity
cdk1/cyclin B = cdk1/cyclin B (Homo sapiens, UniProt P06493); experiment: Cyclin-dependent kinase assay, cdk1/cyclin B (Histone H1 substrate)
[1] = Red blood cell binding (RBC to plasma ratio), mouse whole blood; format: in vitro ADME; conditions: 30 minutes at 37° C., nominal 500 ng/ml
Procedure: (§1) Compounds, including one positive control, are assessed for red blood cell (RBC) uptake, using a modified procedure based on the protocol reported in Sun, J. X. S., et al. High-performance liquid chromatographic analysis, plasma protein binding and red blood cell partitioning of phenprobamate. Biopharmaceutics and Drug Disposition, 8 (1987) 341-351.
(§2) Briefly, RBC uptake is evaluated by comparison of the levels in spiked plasma (n=3) and plasma isolated from spiked whole blood (n=3). Compounds are incubated with human and mouse whole blood, respectively, for 30 minutes at 37° C. using a nominal concentration of 500 ng/ml. Following centrifugation, the plasma is removed and submitted for analysis. Each compound is also spiked into blank plasma at a nominal concentration of 500 ng/ml, and submitted for analysis. Levels in the two plasma samples (Cp′ and Cp in the equation below) and the blood hematocrit are used to determine the red blood cell to plasma ratio (Crbc/Cp). [formula] In equation 1, Cp′ is the level of drug in the spiked “blank” plasma, Cp is the level of drug in the plasma of spiked whole blood, and H is the hematocrit. The hematocrit values are determined as 0.4 for human whole blood and 0.41 for mouse whole blood. The samples are analyzed with ESI LC/MS, using positive ion detection with an internal standard.
(§3) The red blood cell to plasma ratio is determined for each compound using equation 1. Tables 6 and 7 summarize the respective mean Crbc/Cp values and standard deviations for mouse and human whole blood, respectively, in descending order based on the red blood cell to plasma ratio, where “*” denotes Positive Control, and “ND” denotes Not Determined. MDL 108552 is included as a positive control for red blood cell uptake.

[2] = Red blood cell binding (RBC to plasma ratio), human whole blood; format: in vitro ADME; conditions: 30 minutes at 37° C., nominal 500 ng/ml
Procedure: as §1, §2, §3

[3] = Plasma pharmacokinetics in mice after single intravenous cassette doses; conditions: mice; for Mean concentration in plasma: single 18 mg/kg intravenous cassette dose (Cassette #1), BLQ = below assay quantification limit (approx. 1 ng/ml)
[4] = Cassette #3, single 15 mg/kg iv cassette dose (3 mg/kg/compound), 24 h
[5] = Cassette #4, single 15 mg/kg iv cassette dose (3 mg/kg/compound), 8 h
[6] = Cassette #4, single 15 mg/kg iv cassette dose (3 mg/kg/compound), 24 h
[7] = Cassette #2, single 18 mg/kg iv cassette dose (3 mg/kg/compound), 24 h

cdk1/cyclin B, sequence (P06493 whole entry): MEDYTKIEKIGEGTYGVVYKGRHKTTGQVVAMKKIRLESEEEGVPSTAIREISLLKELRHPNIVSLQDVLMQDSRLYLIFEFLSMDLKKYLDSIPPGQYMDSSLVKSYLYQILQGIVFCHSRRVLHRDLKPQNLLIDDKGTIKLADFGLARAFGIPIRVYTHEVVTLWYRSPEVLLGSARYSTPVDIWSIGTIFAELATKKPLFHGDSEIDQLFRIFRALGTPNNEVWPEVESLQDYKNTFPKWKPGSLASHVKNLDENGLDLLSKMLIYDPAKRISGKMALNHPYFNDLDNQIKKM
cdk1/cyclin B, sequence (P14635 whole entry partner): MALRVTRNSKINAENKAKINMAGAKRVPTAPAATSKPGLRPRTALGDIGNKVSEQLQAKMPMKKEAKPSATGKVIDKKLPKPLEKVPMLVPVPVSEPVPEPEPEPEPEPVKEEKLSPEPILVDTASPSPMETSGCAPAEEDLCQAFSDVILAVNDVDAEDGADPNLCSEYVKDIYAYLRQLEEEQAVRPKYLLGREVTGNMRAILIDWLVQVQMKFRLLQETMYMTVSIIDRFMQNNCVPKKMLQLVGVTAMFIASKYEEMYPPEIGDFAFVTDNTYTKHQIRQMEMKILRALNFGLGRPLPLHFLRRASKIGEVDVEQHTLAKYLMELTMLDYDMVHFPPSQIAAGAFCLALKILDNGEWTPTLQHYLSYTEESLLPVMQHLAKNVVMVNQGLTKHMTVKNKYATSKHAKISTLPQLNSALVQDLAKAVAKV
cdk4/cyclin D1, sequence (P11802 whole entry): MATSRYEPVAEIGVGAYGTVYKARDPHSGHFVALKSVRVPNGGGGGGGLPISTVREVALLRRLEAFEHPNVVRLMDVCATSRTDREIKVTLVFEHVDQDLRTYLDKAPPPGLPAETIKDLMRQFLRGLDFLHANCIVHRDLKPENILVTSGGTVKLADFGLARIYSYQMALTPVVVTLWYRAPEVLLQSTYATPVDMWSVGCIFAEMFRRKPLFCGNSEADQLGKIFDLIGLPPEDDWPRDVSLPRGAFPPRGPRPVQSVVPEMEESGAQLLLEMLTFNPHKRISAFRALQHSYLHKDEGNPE
cdk4/cyclin D1, sequence (P24385 whole entry partner): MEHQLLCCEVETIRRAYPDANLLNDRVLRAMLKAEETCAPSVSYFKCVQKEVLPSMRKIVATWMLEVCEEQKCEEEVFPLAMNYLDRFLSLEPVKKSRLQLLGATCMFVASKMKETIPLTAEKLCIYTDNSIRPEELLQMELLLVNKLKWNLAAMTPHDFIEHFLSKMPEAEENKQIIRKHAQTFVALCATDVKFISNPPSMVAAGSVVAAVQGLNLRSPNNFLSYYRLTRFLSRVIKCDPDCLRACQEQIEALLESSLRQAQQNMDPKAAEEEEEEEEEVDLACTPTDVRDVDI

SMILES: N[C@H]1CC[C@H](Nc2nc(NC3CCN(S(=O)(=O)c4cccs4)CC3)c3ncn(C4CCCC4)c3n2)CC1 [Compound 128, trans-N^2&-(4-Amino-cyclohexyl)-9-cyclopentyl-N^6-[1-(thiophene-2-sulfonyl)-piperidin-4-yl]-9H-purine-2,6-diamine dihydrochloride]
IC50 (cdk4/cyclin D1): 5 nM
IC50 (cdk1/cyclin B): 9 nM

SMILES: Cl.Cl.N[C@H]1CC[C@H](Nc2nc(NC3CCN(S(=O)(=O)c4cccc(C(F)(F)F)c4)CC3)c3ncn(C4CCCC4)c3n2)CC1 [Compound 112, trans-N^2-(4-Amino-cyclohexyl)-9-cyclopentyl-N^6-[1-(3-trifluoromethyl-benzenesulfonyl)-piperidin-4-yl]-9H-purine-2,6-diamine dihydrochloride]
Mean Red Blood Cell to Plasma Ratio ([1]; hematocrit 0.41): 2.4
Mean Red Blood Cell to Plasma Ratio [2]: 3.7
Mean Conc. in plasma [3, 4]: BLQ

SMILES: Cl.Cl.N[C@H]1CC[C@H](Nc2nc(NC3CCN(S(=O)(=O)c4ccc(F)cc4)CC3)c3ncn(C4CCCC4)c3n2)CC1 [Compound 106, trans-N^2-(4-Amino-cyclohexyl)-9-cyclopentyl-N^6-[1-(4-fluoro-benzenesulfonyl)-piperidin-4-yl]-9H-purine-2,6-diamine dihydrochloride]
Mean Red Blood Cell to Plasma Ratio ([1]; hematocrit 0.41): 3.0
Mean Red Blood Cell to Plasma Ratio [2]: 3.9
Mean Conc. in plasma [3, 5]: BLQ^a
Mean Conc. in plasma [3, 6]: BLQ

SMILES: COc1ccc(OC(=O)N2CCC(Nc3nc(N[C@H]4CC[C@H](N)CC4)nc4c3ncn4C3CCCC3)CC2)cc1.Cl.Cl [Compound 84, trans-4-[2-(4-Amino-cyclohexylamino)-9-cyclopentyl-9H-purin-6-ylamino]-piperidine-1-carboxylic acid 4-methoxy-phenyl ester dihydrochloride]
Mean Red Blood Cell to Plasma Ratio ([1]; hematocrit 0.41): 3.5
Mean Red Blood Cell to Plasma Ratio [2]: 2.0
Mean Conc. in plasma [3, 7]: BLQ

SMILES: COc1cc(COC(=O)N2CCC(Nc3nc(N[C@H]4CC[C@H](N)CC4)nc4c3ncn4C3CCCC3)CC2)c([N+](=O)[O-])cc1OC [Compound 101, trans-4-[2-(4-Amino-cyclohexylamino)-9-cyclopentyl-9H-purin-6-ylamino]-piperidine-1-carboxylic acid 4,5-dimethoxy-2-nitro-benzyl ester dihydrochloride]
IC50 (cdk4/cyclin D1): > 10000 nM

SMILES: Cl.Cl.N[C@H]1CC[C@H](Nc2nc(NC3CCN(C(=O)Nc4ccc(C(F)(F)F)cc4)CC3)c3ncn(C4CCCC4)c3n2)CC1 [Compound 149, trans-4-[2-(4-Amino-cyclohexylamino)-9-cyclopentyl-9H-purin-6-ylamino]-piperidine-1-carboxylic acid (4-trifluoromethyl-phenyl)-amide dihydrochloride]
Mean Red Blood Cell to Plasma Ratio ([1]; hematocrit 0.41): 3.4
Mean Red Blood Cell to Plasma Ratio [2]: 2.8
Mean Conc. in plasma [3, 4]: BLQ

SMILES: Cl.Cl.N[C@H]1CC[C@H](Nc2nc(NC3CCN(C(=O)Oc4ccc(Br)cc4)CC3)c3ncn(C4CCCC4)c3n2)CC1 [Compound 81, trans-4-[2-(4-Amino-cyclohexylamino)-9-cyclopentyl-9H-purin-6-ylamino]-piperidine-1-carboxylic acid 4-bromo-phenyl ester dihydrochloride]
Mean Red Blood Cell to Plasma Ratio ([1]; hematocrit 0.41, dihydrochloride): 4.5 and 3.3
Mean Red Blood Cell to Plasma Ratio [2]: 5.3
Mean Conc. in plasma [3, 7]: BLQ

SMILES: Cl.Cl.N[C@H]1CC[C@H](Nc2nc(NC3CCN(C(=O)Oc4ccc(Cl)cc4)CC3)c3ncn(C4CCCC4)c3n2)CC1 [Compound 88, trans-4-[2-(4-Amino-cyclohexylamino)-9-cyclopentyl-9H-purin-6-ylamino]-piperidine-1-carboxylic acid 4-chloro-phenyl ester dihydrochloride]
Mean Red Blood Cell to Plasma Ratio ([1]; hematocrit 0.41): 3.5
Mean Red Blood Cell to Plasma Ratio [2]: 2.6
Mean Conc. in plasma ([3]; Cassette #3, single 15 mg/kg iv cassette dose (3 mg/kg/compound), 0.083 h): 1483.3 ± 272.5 ng/mL
Mean Conc. in plasma ([3]; Cassette #3, single 15 mg/kg iv cassette dose (3 mg/kg/compound), 0.25 h): 420.9 ± 49.9 ng/mL
Mean Conc. in plasma ([3]; Cassette #3, single 15 mg/kg iv cassette dose (3 mg/kg/compound), 0.5 h): 150.2 ± 5.9 ng/mL
Mean Conc. in plasma ([3]; Cassette #3, single 15 mg/kg iv cassette dose (3 mg/kg/compound), 1 h): 74.6 ± 16.1 ng/mL
Mean Conc. in plasma ([3]; Cassette #3, single 15 mg/kg iv cassette dose (3 mg/kg/compound), 3 h): 24.8 ± 7.4 ng/mL
Mean Conc. in plasma ([3]; Cassette #3, single 15 mg/kg iv cassette dose (3 mg/kg/compound), 6 h): 8.9 ± 1.6 ng/mL
Mean Conc. in plasma ([3]; Cassette #3, single 15 mg/kg iv cassette dose (3 mg/kg/compound), 8 h): 5.4 ± 2.0 ng/mL
Mean Conc. in plasma [3, 4]: BLQ

SMILES: Cl.Cl.N[C@H]1CC[C@H](Nc2nc(NC3CCN(C(=O)Oc4ccc([N+](=O)[O-])cc4)CC3)c3ncn(C4CCCC4)c3n2)CC1 [Compound 89, trans-4-[2-(4-Amino-cyclohexylamino)-9-cyclopentyl-9H-purin-6-ylamino]-piperidine-1-carboxylic acid 4-nitro-phenyl ester dihydrochloride]
Mean Red Blood Cell to Plasma Ratio ([1]; hematocrit 0.41): 4.7
Mean Red Blood Cell to Plasma Ratio [2]: 4.2
Mean Conc. in plasma ([3]; Cassette #4, single 15 mg/kg iv cassette dose (3 mg/kg/compound), 0.083 h): 642.0 ± 49.5 ng/mL
Mean Conc. in plasma ([3]; Cassette #4, single 15 mg/kg iv cassette dose (3 mg/kg/compound), 0.25 h): 303.3 ± 34.3 ng/mL
Mean Conc. in plasma ([3]; Cassette #4, single 15 mg/kg iv cassette dose (3 mg/kg/compound), 0.5 h): 142.4 ± 2.7 ng/mL
Mean Conc. in plasma ([3]; Cassette #4, single 15 mg/kg iv cassette dose (3 mg/kg/compound), 1 h): 52.4 ± 4.2 ng/mL
Mean Conc. in plasma ([3]; Cassette #4, single 15 mg/kg iv cassette dose (3 mg/kg/compound), 3 h): 17.0 ± 4.7 ng/mL
Mean Conc. in plasma ([3]; Cassette #4, single 15 mg/kg iv cassette dose (3 mg/kg/compound), 6 h): 3.7 ± 1.0 ng/mL
Mean Conc. in plasma [3, 5]: 3.8 ± 0.5 ng/mL
Mean Conc. in plasma [3, 6]: BLQ

Continued, values first:

IC50 (cdk4/cyclin D1): 1490 nM
IC50 (cdk1/cyclin B): 129 nM
SMILES: N[C@H]1CC[C@H](Nc2nc(NC3CCN(C(=O)/C=C/c4cccc(C(F)(F)F)c4)CC3)c3ncn(C4CCCC4)c3n2)CC1 [Compound 44, trans-(E)-1-{4-[2-(4-Amino-cyclohexylamino)-9-cyclopentyl-9H-purin-6-ylamino]-piperidin-1-yl}-3-(3-trifluoromethyl-phenyl)-propenone dihydrochloride]

IC50 (cdk4/cyclin D1): 167 nM
IC50 (cdk1/cyclin B): 25 nM
SMILES: N[C@H]1CC[C@H](Nc2nc(NC3CCN(C(=O)/C=C/c4ccccc4)CC3)c3ncn(C4CCCC4)c3n2)CC1 [Compound 62, trans-(E)-1-{4-[2-(4-Amino-cyclohexylamino)-9-cyclopentyl-9H-purin-6-ylamino]-piperidin-1-yl}-3-phenyl-propenone dihydrochloride]

IC50 (cdk4/cyclin D1): 476 nM
IC50 (cdk1/cyclin B): 89 nM
SMILES: CCCCc1ccc(C(=O)N2CCC(Nc3nc(N[C@H]4CC[C@H](N)CC4)nc4c3ncn4C3CCCC3)CC2)cc1 [Compound 21, trans-1-{4-[2-(4-Amino-cyclohexylamino)-9-cyclopentyl-9H-purin-6-ylamino]-piperidin-1-yl}-1-(4-butyl-phenyl)-methanone]

Mean Red Blood Cell to Plasma Ratio ([1]; hematocrit 0.41): 2.2
Mean Red Blood Cell to Plasma Ratio [2]: 1.2
Mean concentration in plasma ([3]; 24 h): BLQ
SMILES: COC(=O)c1ccccc1S(=O)(=O)N1CCC(Nc2nc(N[C@H]3CC[C@H](N)CC3)nc3c2ncn3C2CCCC2)CC1.Cl.Cl [Compound 111, trans-2-{4-[2-(4-Amino-cyclohexylamino)-9-cyclopentyl-9H-purin-6-ylamino]-piperidine-1-sulfonyl}-benzoic acid methyl ester dihydrochloride]

Mean Red Blood Cell to Plasma Ratio ([1]; hematocrit 0.41): 1.9
Mean Red Blood Cell to Plasma Ratio [2]: 3.6
Mean concentration in plasma ([3]; 24 h): BLQ
SMILES: Cl.Cl.N[C@H]1CC[C@H](Nc2nc(NC3CCN(C(=O)c4cccc(C(F)(F)F)c4F)CC3)c3ncn(C4CCCC4)c3n2)CC1 [Compound 12, trans-1-{4-[2-(4-Amino-cyclohexylamino)-9-cyclopentyl-9H-purin-6-ylamino]-piperidin-1-yl}-1-(2-fluoro-3-trifluoromethyl-phenyl)-methanone dihydrochloride]

IC50 (cdk4/cyclin D1): > 10000 nM
SMILES: C=CCCOC(=O)N1CCC(Nc2nc(N[C@H]3CC[C@H](N)CC3)nc3c2ncn3C2CCCC2)CC1 [Compound 100, trans-4-[2-(4-Amino-cyclohexylamino)-9-cyclopentyl-9H-purin-6-ylamino]-piperidine-1-carboxylic acid but-3-enyl ester dihydrochloride]

From US6861524B2, “Acyl and sulfonyl derivatives of 6,9-disubstituted 2-(trans-1,4-diaminocyclohexyl)-purines and their use as antiproliferative agents” (Aventis Pharmaceuticals Inc., priority 2000, dated 2005)
